Experiments:
Format in all cases: in vivo
DS male mice [1] = assay: Anti-pentylenetetrazol activity; details: compound given orally 60 minutes prior to 125 mg/kg s.c. pentylenetetrazol, complete protection against mortality, observed 2 hours
Description: 1. Anti-pentylenetetrazol activity
The convulsions were disregarded.

DS male mice [2] = assay: Taming activity (inhibition of electroshock-induced fighting); details: compound administered 60 minutes prior, inhibition of fighting responses, 5 pairs
Description: (§1) This test was measured on DS male mice.
These pairs of mice were selected in the morning and used for drug test in the afternoon. The test compound was administered to both mice of the pairs 60 minutes prior to the experiment. Results were obtained as the mean percentage of inhibition of fighting responses in a group of 5 pairs and shown by ED50 [Tedeschi, et al.: J. Pharmacol Exp. Thev., 125, 28-34 (1959)].

DS male mice [3] = assay: Rotarod performance activity; details: fall from rod within less than 2 minutes
Description: 3. Rotarod performance activity:
as §1
The mouse was put on a scraped rod of wood, 3 cm in diameter, turning at the rate of five rotations per minute. The mice that could remain on the rod for 3 or more minutes in successive trails were selected and placed in a group of 10 mice for each dose. If the mouse fell down from the rod within less than 2 minutes, the test compound was considered to be effective. Results were shown by ED50 [Dunham, et al.: J. Am. Pharm. Assoc., 46, 208 (1957)].

For `CN(C(=O)CNC(=O)CN)c1ccc(Cl)cc1C(=O)c1ccccc1` [Compound 1, 2-benzoyl-4-chloro-N-methyl-N^α -glycyl-glycinanilide], the “Anti-pentylenetetrazol activity, ED50” value (DS male mice [1]) was 1.0 mg/kg.

`CN(C(=O)CNC(=O)CN)c1ccc(Cl)cc1C(=O)c1ccccc1Cl.O` [Compound 2, 2-o-chlorobenzoyl-4-chloro-N-methyl-N^α -glycyl-glycinanilide hydrate] was tested, and the “Taming activity ED50” value (DS male mice [2]) was 3.0 mg/kg and the “Anti-pentylenetetrazol activity, ED50” value (DS male mice [1]) was 0.58 mg/kg.

In the case of `CN(C(=O)CNC(=O)CN)c1ccc(Cl)cc1C(=O)c1ccccc1F.Cl` [Compound 3, 2-o-fluorobenzoyl-4-chloro-N-methyl-N^α -glycyl-glycinanilide hydrochloride], the “Taming activity ED50” value (DS male mice [2]) is reported as 1.6 mg/kg, the “Anti-pentylenetetrazol activity, ED50” value (DS male mice [1]) is reported as 0.33 mg/kg and the “Rotarod performance ED50” value (DS male mice [3]) is reported as 17.0 mg/kg.

In the case of `CNC1=Nc2ccc(Cl)cc2C(c2ccccc2)=[N+]([O-])C1` [Compound 4, Chlordiazepoxide, reference compound], the “Rotarod performance ED50” value (DS male mice [3]) is reported as 50.0 mg/kg.
